Data from PMC8950173 (Pharmaceuticals, 2022).

Biological target: human recombinant HDAC3/NcoR2 (Homo sapiens, UniProt O15379)
Assay: Inhibition assay HDAC3 (fluorogenic substrate ZMAL)
Type: biochemical
Conditions: HDAC1 over HDAC3, from IC50 values
Experimental: In vitro inhibitory activities against HDAC1−3 and HDAC6 were measured as previously published with minor modifications. […] Subsequently, 50 µL trypsin solution (0.4 mg/mL trypsin in buffer: 50 mM Tris−HCl, pH = 8.0, 100 mM NaCl) was added, followed by additional 30 min of incubation at 37 °C. […] All compounds were tested at least twice in duplicates.

human recombinant HDAC3/NcoR2, sequence (O15379 whole entry): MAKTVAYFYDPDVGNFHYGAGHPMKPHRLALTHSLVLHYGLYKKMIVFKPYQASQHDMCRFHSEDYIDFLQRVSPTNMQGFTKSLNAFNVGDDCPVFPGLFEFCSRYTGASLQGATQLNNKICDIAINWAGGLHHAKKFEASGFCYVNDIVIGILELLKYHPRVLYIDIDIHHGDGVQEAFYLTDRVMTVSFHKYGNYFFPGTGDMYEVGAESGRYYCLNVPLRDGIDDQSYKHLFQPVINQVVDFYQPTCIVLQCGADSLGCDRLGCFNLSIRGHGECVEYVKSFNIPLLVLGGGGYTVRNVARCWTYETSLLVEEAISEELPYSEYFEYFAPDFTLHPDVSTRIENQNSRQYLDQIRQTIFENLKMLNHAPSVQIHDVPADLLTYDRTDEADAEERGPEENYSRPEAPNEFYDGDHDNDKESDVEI
human recombinant HDAC3/NcoR2, sequence (Q9Y618 395-489 partner limits assumed): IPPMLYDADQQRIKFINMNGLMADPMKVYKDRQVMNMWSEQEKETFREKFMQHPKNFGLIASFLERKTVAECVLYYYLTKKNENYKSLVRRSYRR

CC([18F])C(=O)NCc1ccc(C(=O)Nc2cc(-c3ccsc3)ccc2N)cc1 (stereo not shown) [[^18F]BA3]
specificity ratio (HDAC1/HDAC3): > 230
